Test results taken from the NIST ThermoML archive (doi:10.1021/je060283w).
Numbers after ± are expanded uncertainties.

Test: relative permittivity at zero frequency (dimensionless)
Conditions: Parallel plate capacitor

COC [dimethyl ether]
Conditions | relative permittivity at zero frequency
303.7 K, 180 kPa, Gas | 1.016 ± 0.02
303.7 K, 320 kPa, Gas | 1.025 ± 0.02
303.7 K, 440 kPa, Gas | 1.032 ± 0.02
303.7 K, 460 kPa, Gas | 1.034 ± 0.02
303.7 K, 500 kPa, Gas | 1.037 ± 0.022
303.7 K, 530 kPa, Gas | 1.039 ± 0.023
303.7 K, 660 kPa, Gas | 1.084 ± 0.024
303.7 K, 6300 kPa, Liquid | 5.34 ± 0.03
303.7 K, 8000 kPa, Liquid | 5.37 ± 0.03
303.7 K, 10200 kPa, Liquid | 5.41 ± 0.03
303.7 K, 12200 kPa, Liquid | 5.44 ± 0.03
303.7 K, 14200 kPa, Liquid | 5.47 ± 0.03
303.7 K, 16300 kPa, Liquid | 5.5 ± 0.03
303.7 K, 17600 kPa, Liquid | 5.52 ± 0.03
303.7 K, 20200 kPa, Liquid | 5.56 ± 0.03
303.7 K, 22400 kPa, Liquid | 5.59 ± 0.03
303.7 K, 24200 kPa, Liquid | 5.62 ± 0.03
303.7 K, 25900 kPa, Liquid | 5.64 ± 0.03
303.7 K, 27500 kPa, Liquid | 5.66 ± 0.03
313.3 K, 80 kPa, Gas | 1.011 ± 0.02
313.3 K, 150 kPa, Gas | 1.015 ± 0.02
313.3 K, 460 kPa, Gas | 1.034 ± 0.02
313.3 K, 510 kPa, Gas | 1.037 ± 0.02
313.3 K, 560 kPa, Gas | 1.041 ± 0.02
313.3 K, 770 kPa, Gas | 1.057 ± 0.023
313.3 K, 870 kPa, Gas | 1.142 ± 0.04
313.3 K, 2300 kPa, Liquid | 5 ± 0.04
313.3 K, 4400 kPa, Liquid | 5.05 ± 0.03
313.3 K, 6300 kPa, Liquid | 5.1 ± 0.03
313.3 K, 8300 kPa, Liquid | 5.14 ± 0.03
313.3 K, 10200 kPa, Liquid | 5.16 ± 0.03
313.3 K, 12200 kPa, Liquid | 5.2 ± 0.03
313.3 K, 14300 kPa, Liquid | 5.24 ± 0.03
313.3 K, 16300 kPa, Liquid | 5.27 ± 0.03
313.3 K, 18000 kPa, Liquid | 5.3 ± 0.03
313.3 K, 20400 kPa, Liquid | 5.33 ± 0.03
313.3 K, 22000 kPa, Liquid | 5.35 ± 0.03
313.3 K, 24300 kPa, Liquid | 5.39 ± 0.03
313.3 K, 26100 kPa, Liquid | 5.41 ± 0.03
313.3 K, 28200 kPa, Liquid | 5.44 ± 0.03
313.3 K, 29600 kPa, Liquid | 5.46 ± 0.03
323 K, 50 kPa, Gas | 1.01 ± 0.02
323 K, 100 kPa, Gas | 1.012 ± 0.02
323 K, 240 kPa, Gas | 1.02 ± 0.02
323 K, 450 kPa, Gas | 1.033 ± 0.02
323 K, 530 kPa, Gas | 1.038 ± 0.02
323 K, 700 kPa, Gas | 1.049 ± 0.021
323 K, 1080 kPa, Gas | 1.118 ± 0.022
323 K, 1300 kPa, Liquid | 4.72 ± 0.04
323 K, 2200 kPa, Liquid | 4.74 ± 0.04
323 K, 4200 kPa, Liquid | 4.8 ± 0.04
323 K, 6200 kPa, Liquid | 4.85 ± 0.03
323 K, 8200 kPa, Liquid | 4.89 ± 0.03
323 K, 10400 kPa, Liquid | 4.93 ± 0.03
323 K, 12400 kPa, Liquid | 4.97 ± 0.03
323 K, 14200 kPa, Liquid | 5.01 ± 0.03
323 K, 16400 kPa, Liquid | 5.04 ± 0.03
323 K, 18300 kPa, Liquid | 5.07 ± 0.03
323 K, 19800 kPa, Liquid | 5.1 ± 0.03
323 K, 22000 kPa, Liquid | 5.13 ± 0.03
323 K, 24000 kPa, Liquid | 5.17 ± 0.03
323 K, 26300 kPa, Liquid | 5.2 ± 0.03
323 K, 27900 kPa, Liquid | 5.23 ± 0.03
323 K, 29400 kPa, Liquid | 5.25 ± 0.03
323 K, 31200 kPa, Liquid | 5.27 ± 0.03
333.4 K, 430 kPa, Gas | 1.03 ± 0.02
333.4 K, 460 kPa, Gas | 1.031 ± 0.02
333.4 K, 540 kPa, Gas | 1.036 ± 0.02
333.4 K, 710 kPa, Gas | 1.047 ± 0.02
333.4 K, 850 kPa, Gas | 1.057 ± 0.02
333.4 K, 1050 kPa, Gas | 1.071 ± 0.021
333.4 K, 1380 kPa, Gas | 1.122 ± 0.021
333.4 K, 2200 kPa, Liquid | 4.46 ± 0.04
333.4 K, 4300 kPa, Liquid | 4.52 ± 0.04
333.4 K, 6400 kPa, Liquid | 4.58 ± 0.03
333.4 K, 8300 kPa, Liquid | 4.62 ± 0.03
333.4 K, 10200 kPa, Liquid | 4.67 ± 0.03
333.4 K, 12200 kPa, Liquid | 4.71 ± 0.03
333.4 K, 14000 kPa, Liquid | 4.74 ± 0.03
333.4 K, 15800 kPa, Liquid | 4.78 ± 0.03
333.4 K, 17200 kPa, Liquid | 4.81 ± 0.03
333.4 K, 22000 kPa, Liquid | 4.89 ± 0.03
333.4 K, 23800 kPa, Liquid | 4.92 ± 0.03
333.4 K, 25800 kPa, Liquid | 4.95 ± 0.03
333.4 K, 27600 kPa, Liquid | 4.97 ± 0.03
333.4 K, 29400 kPa, Liquid | 4.99 ± 0.03
343.2 K, 60 kPa, Gas | 1.01 ± 0.02
343.2 K, 120 kPa, Gas | 1.013 ± 0.02
343.2 K, 220 kPa, Gas | 1.018 ± 0.02
343.2 K, 390 kPa, Gas | 1.027 ± 0.02
343.2 K, 430 kPa, Gas | 1.029 ± 0.02
343.2 K, 490 kPa, Gas | 1.032 ± 0.02
343.2 K, 550 kPa, Gas | 1.035 ± 0.02
343.2 K, 610 kPa, Gas | 1.039 ± 0.02
343.2 K, 740 kPa, Gas | 1.044 ± 0.02
343.2 K, 930 kPa, Gas | 1.059 ± 0.02
343.2 K, 1090 kPa, Gas | 1.069 ± 0.02
343.2 K, 1240 kPa, Gas | 1.08 ± 0.02
343.2 K, 1550 kPa, Gas | 1.106 ± 0.021
343.2 K, 1730 kPa, Gas | 1.166 ± 0.025
343.2 K, 2600 kPa, Liquid | 4.21 ± 0.04
343.2 K, 4000 kPa, Liquid | 4.25 ± 0.04
343.2 K, 6000 kPa, Liquid | 4.32 ± 0.04
343.2 K, 8200 kPa, Liquid | 4.38 ± 0.03
343.2 K, 10200 kPa, Liquid | 4.43 ± 0.03
343.2 K, 12200 kPa, Liquid | 4.48 ± 0.03
343.2 K, 14400 kPa, Liquid | 4.52 ± 0.03
343.2 K, 16300 kPa, Liquid | 4.56 ± 0.03
343.2 K, 18000 kPa, Liquid | 4.59 ± 0.03
343.2 K, 20200 kPa, Liquid | 4.64 ± 0.03
343.2 K, 21900 kPa, Liquid | 4.67 ± 0.03
343.2 K, 23400 kPa, Liquid | 4.69 ± 0.03
343.2 K, 27700 kPa, Liquid | 4.76 ± 0.03
343.2 K, 30400 kPa, Liquid | 4.8 ± 0.03
